Data from PubChem BioAssay (NCI).
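Step 1: Grow cells in 96-well plates. Step 2: Expose to compound for 48 hours at 5 concentrations. Step 3: Interpolate endpoints linearly; if unreached, use highest concentration. The concentration for 50% growth inhibition is given as GI50. At the TGI there is no net growth.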

Key:
Experiment in all cases: growth of human tumour cells (NCI), 48 h
CAKI-1 renal = tested on: CAKI-1 renal
IGROV1 ovarian = tested on: IGROV1 ovarian
NCI-H23 lung = tested on: NCI-H23 lung
NCI-H460 lung = tested on: NCI-H460 lung
OVCAR-5 ovarian = tested on: OVCAR-5 ovarian
SF-295 CNS = tested on: SF-295 CNS
SN12C renal = tested on: SN12C renal
SNB-19 CNS = tested on: SNB-19 CNS
SNB-75 CNS = tested on: SNB-75 CNS
UACC-257 melanoma = tested on: UACC-257 melanoma

| SMILES | GI50 (CAKI-1 renal) | TGI (CAKI-1 renal) | GI50 (IGROV1 ovarian) | TGI (IGROV1 ovarian) | GI50 (NCI-H23 lung) | TGI (NCI-H23 lung) | GI50 (NCI-H460 lung) | TGI (NCI-H460 lung) | GI50 (OVCAR-5 ovarian) | TGI (OVCAR-5 ovarian) | GI50 (SF-295 CNS) | TGI (SF-295 CNS) | GI50 (SN12C renal) | TGI (SN12C renal) | GI50 (SNB-19 CNS) | TGI (SNB-19 CNS) | GI50 (SNB-75 CNS) | TGI (SNB-75 CNS) | GI50 (UACC-257 melanoma) | TGI (UACC-257 melanoma) |
| --- | --- | --- | --- | --- | --- | --- | --- | --- | --- | --- | --- | --- | --- | --- | --- | --- | --- | --- | --- | --- |
| NC(N)=N/N=C/c1ccc(Br)cc1 | 3.02 µM | 15.2 µM | 4.91 µM | 24.2 µM | 4.81 µM | 19.6 µM | 3.29 µM | 11.7 µM | 10.4 µM | 24.9 µM | 2.95 µM | 11.8 µM | 6.55 µM | 20.2 µM | 5.74 µM | 24.2 µM | 1600 nM | 5.76 µM | 12.8 µM | 29.1 µM |
| COC(=O)CCc1c(/C=C2\N=C(c3ccc[nH]3)C=C2OC)[nH]c(C)c1C(=O)OCc1ccccc1 | 0.272 µM | 1.59 µM | 0.355 µM | 2.41 µM | 0.795 µM | 4.31 µM | 0.958 µM | > 61.9 µM | 0.684 µM | 9.84 µM | 0.384 µM | 1.73 µM | 0.442 µM | 2.5 µM | 1.17 µM | > 100 µM | 315 nM | 1.8 µM | 1.16 µM | 5.25 µM |
| COn1cc(C(=O)N=C(SC)SC)c2ccccc21 | 22.7 µM | 63.8 µM | 11.8 µM | 55.5 µM | 27.2 µM | 60.3 µM | > 100 µM | > 100 µM | 26.2 µM | 73.7 µM | 16.8 µM | 55.4 µM | 22.4 µM | 74.3 µM | 40.2 µM | > 100 µM | 68700 nM | > 100 µM | 18.2 µM | 59.2 µM |
| CSc1nc(-c2cccc(NC(=O)CCl)c2)c(C#N)c(=O)n1C | 1.68 µM | 3.07 µM | 0.248 µM | 1.41 µM | 1.46 µM | 3.01 µM | 3.16 µM | 11.1 µM | 1.83 µM | 3.38 µM | 1.7 µM | 3.22 µM | 3.05 µM | 18.1 µM | 1.63 µM | 3.29 µM | 1190 nM | 2.47 µM | 1.6 µM | 6.08 µM |
| Nc1nc(Cl)c2ncn(Cc3ccc(-c4ccc(CCl)cc4)cc3)c2n1 | 5.76 µM | 33.3 µM | 12.5 µM | > 100 µM | 5.6 µM | 19.9 µM | 20.4 µM | 69.1 µM | 20.8 µM | > 100 µM | 17.4 µM | > 100 µM | 2.54 µM | 10.1 µM | 38.4 µM | > 100 µM | 10300 nM | 28.1 µM | 3.24 µM | 15.2 µM |
| C/C(=N\NS(=O)(=O)c1ccccc1)c1ccc[n+]([O-])n1 | – | > 100 µM | – | > 100 µM | – | > 100 µM | – | > 100 µM | – | > 100 µM | – | > 100 µM | – | > 100 µM | – | > 100 µM | – | > 100 µM | – | > 100 µM |
| N#CCCn1c(CCC(=O)Nc2ccc(Cl)cc2Cl)n[nH]c1=S | – | > 100 µM | – | > 100 µM | – | > 100 µM | – | > 100 µM | – | > 100 µM | – | > 100 µM | – | > 100 µM | – | > 100 µM | – | > 100 µM | – | > 100 µM |
| O=C(CN1CCN(c2ccccn2)CC1)Nc1ccc(Cl)cc1C(=O)c1ccccc1Cl | > 100 µM | > 100 µM | 89.2 µM | > 100 µM | 86.2 µM | > 100 µM | 93.6 µM | > 100 µM | > 100 µM | > 100 µM | 30.5 µM | > 100 µM | > 100 µM | > 100 µM | 79.6 µM | > 100 µM | > 100000 nM | > 100 µM | 54.9 µM | > 100 µM |
| COc1ccc(OC)c(/C=C/C(=O)c2ccc3cc(OC)ccc3c2)c1 | 1.2 µM | 10.6 µM | – | > 14.5 µM | – | > 14.3 µM | 10.3 µM | > 50 µM | > 11.6 µM | > 50 µM | 1.5 µM | 12.2 µM | – | > 13.1 µM | – | > 17.2 µM | 1780 nM | 4.53 µM | 7.05 µM | > 27.8 µM |
| COC(=O)[C@]1(C)CC[C@]2(C)CC[C@]3(C)C(=CC(=O)[C@@H]4[C@@]5(C)CCC(=O)NC(C)(C)[C@@H]5CC[C@]43C)[C@@H]2C1 | 35.9 µM | > 100 µM | 26.7 µM | > 100 µM | 31 µM | > 100 µM | 20.1 µM | 58.8 µM | 21.3 µM | 38.9 µM | 19.4 µM | 43.8 µM | 17.1 µM | 35.2 µM | 29 µM | > 100 µM | 25500 nM | > 100 µM | 24.4 µM | 94.3 µM |
| O=C1CC2OCC=C3CN4CCC56c7ccccc7N1C5C2C3CC46 (stereo unspecified) (tested in a mixture with another compound) | > 50 µg/mL | > 50 µg/mL | > 50 µg/mL | > 50 µg/mL | > 50 µg/mL | > 50 µg/mL | > 50 µg/mL | > 50 µg/mL | > 50 µg/mL | > 50 µg/mL | > 50 µg/mL | > 50 µg/mL | > 50 µg/mL | > 50 µg/mL | > 50 µg/mL | > 50 µg/mL | > 50 µg/mL | > 50 µg/mL | > 50 µg/mL | > 50 µg/mL |
| Cc1ccc(SSCCCCS(=O)O)cc1 | – | 40.9 µM | – | 18.8 µM | – | 55.4 µM | – | > 100 µM | – | 96.3 µM | – | 96.4 µM | – | 40.4 µM | – | > 100 µM | – | > 100 µM | – | 53.3 µM |
| COc1c(OC2OC(CO)C(O)C(O)C2O)cc2c(c1OC)-c1ccc(OC)c(=O)cc1[C@@H](NC(C)=O)CC2 (stereo partly specified) | – | > 100 µM | – | > 100 µM | – | > 100 µM | – | > 100 µM | – | > 100 µM | – | > 100 µM | – | > 100 µM | – | > 100 µM | – | 84.4 µM | – | > 100 µM |
| NS(=O)(=O)c1ccc(N=Nc2c(=O)[nH]c3ccc4[nH]cccc4c23)cc1 | 4.28 µM | > 25 µM | 0.789 µM | > 25 µM | 0.671 µM | 3.77 µM | 0.792 µM | > 25 µM | 1.02 µM | > 25 µM | 0.883 µM | > 25 µM | 0.47 µM | > 25 µM | 0.428 µM | > 25 µM | 404 nM | 1.3 µM | 0.828 µM | 6.98 µM |
| CCc1cccc(CC)c1NC(=O)C1=CNC(C)=C(C(=O)Nc2c(CC)cccc2CC)C1c1ccc(O)c(OC)c1 (stereo unspecified) | – | > 100 µM | – | > 100 µM | – | > 100 µM | – | 98.8 µM | – | > 100 µM | – | 73.8 µM | – | > 100 µM | – | > 100 µM | – | > 100 µM | – | 92.7 µM |
| Cc1ccccc1NC(=O)CC(=O)n1nc(-c2ccccc2)c(N=Nc2ccc([N+](=O)[O-])cc2)c1-c1ccccc1 | – | 40.4 µM | – | > 100 µM | – | > 100 µM | – | > 100 µM | – | > 100 µM | – | 49.6 µM | – | 58.4 µM | – | > 100 µM | – | > 100 µM | – | 56.4 µM |
| CCCCCCCCC(=O)NCCN(CCN)C(=O)CCCCCCCC | – | 32.9 µM | – | 19.5 µM | – | 32.2 µM | – | 19.7 µM | – | 30.5 µM | – | 10.5 µM | – | 24.7 µM | – | 17.7 µM | – | 15.2 µM | – | 33.7 µM |
| CC(=O)N1CCN(C=S)CC1 | – | > 100 µM | – | > 100 µM | – | > 100 µM | – | > 100 µM | – | > 100 µM | – | > 100 µM | – | > 100 µM | – | > 100 µM | – | > 100 µM | – | > 100 µM |
| CC(C)Cn1cnc2c(SCc3ccccn3)nc(N)nc21 | – | > 100 µM | – | > 100 µM | – | > 100 µM | – | > 100 µM | – | > 100 µM | – | > 100 µM | – | > 100 µM | – | > 100 µM | – | > 100 µM | – | > 100 µM |
| Nc1nc(N)c(-c2ccc(Cl)cc2)c(/C=C/c2ccc([N+](=O)[O-])cc2)n1 | 4.92 µM | > 100 µM | 5.35 µM | 52.9 µM | 13.3 µM | > 100 µM | 3.4 µM | > 100 µM | 38.2 µM | > 100 µM | 4.39 µM | > 100 µM | 8.02 µM | > 100 µM | 16.1 µM | > 100 µM | 5000 nM | 34 µM | 7.51 µM | > 100 µM |
